Test results as given in ChEMBL document CHEMBL1201862, “PubChem BioAssay data set” (2004).
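Cells were grown in 96-well plates and exposed to each compound for 48 hours at five concentrations; endpoints were interpolated linearly between bracketing concentrations, or set to the highest concentration if not reached. The concentration for 50% growth inhibition is given as GI50.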 Activity calls are given as the source filed them. Rule as the data show it: active = GI50 up to about 1.1 µM and inactive = higher.

Columns and labels:
Test in all cases: DTP human tumour cell line panel, 48 h
[1] = test system: IGROV-1
[2] = test system: CCRF-CEM
[3] = test system: MDA-N
[4] = test system: A498
[5] = test system: RXF 393
[6] = test system: BT-549
[7] = test system: MDA-MB-231
[8] = test system: A549
[9] = test system: M19-MEL
[10] = test system: DMS-114
[11] = test system: SR
[12] = test system: NCI-H522
[13] = test system: NCI/ADR-RES
[14] = test system: SK-MEL-2
[15] = test system: T47D
[16] = test system: HOP-92
[17] = test system: 786-0
[18] = test system: SF-268
[19] = test system: SF-295
[20] = test system: UACC-257

Row | SMILES | GI50 [1] | GI50 [2] | GI50 [3] | GI50 [4] | GI50 [5] | GI50 [6] | GI50 [7] | GI50 [8] | GI50 [9] | GI50 [10] | GI50 [11] | GI50 [12] | GI50 [13] | GI50 [14] | GI50 [15] | GI50 [16] | GI50 [17] | GI50 [18] | GI50 [19] | GI50 [20]
1 | Nc1ccc(-c2nc3ccccc3s2)cc1 | 18.5 µM (inactive) | 14.6 µM (inactive) | 19.5 µM (inactive) | 29.7 µM (inactive) | 17.8 µM (inactive) | 14.9 µM (inactive) | 17.9 µM (inactive) | 23 µM (inactive) | 30.8 µM (inactive) | 17.7 µM (inactive) | 18.4 µM (inactive) | 20.6 µM (inactive) | 22.6 µM (inactive) | 25.3 µM (inactive) | 20.7 µM (inactive) | 11.4 µM (inactive) | 16.2 µM (inactive) | 10.3 µM (inactive) | 29.9 µM (inactive) | 22 µM (inactive)
2 | CC(C)(C)c1nc2c(o1)/C(=N\c1ccc(F)cc1)c1ccccc1C2=O | 14.9 µM (inactive) | > 100 µM (inactive) | 2.37 µM (inactive) | 27.4 µM (inactive) | 9.79 µM (inactive) | 3.45 µM (inactive) | 30.2 µM (inactive) | 6.49 µM (inactive) | 1.13 µM (inactive) | 0.902 µM (active) | > 43.5 µM (inactive) | 5.36 µM (inactive) | 6.73 µM (inactive) | 2.67 µM (inactive) | > 49.3 µM (inactive) | > 72.3 µM (inactive) | 27.2 µM (inactive) | 10.6 µM (inactive) | 6.1 µM (inactive) | 2.36 µM (inactive)
3 | Oc1cc(-c2ccc(Oc3ccccc3)cc2)nc2cc3c(cc12)OCO3 | > 100 µM (inactive) | > 100 µM (inactive) |  | > 100 µM (inactive) | 57.5 µM (inactive) |  |  | > 100 µM (inactive) | > 100 µM (inactive) | > 100 µM (inactive) | > 100 µM (inactive) |  |  | > 100 µM (inactive) |  |  | > 100 µM (inactive) | > 100 µM (inactive) | > 100 µM (inactive) | > 100 µM (inactive)
4 | CCOC(=O)C1=C(C(C)=O)CSC(c2ccccc2)=N1 | > 100 µM (inactive) | > 100 µM (inactive) |  | > 100 µM (inactive) | > 100 µM (inactive) |  |  | > 100 µM (inactive) | > 100 µM (inactive) | > 100 µM (inactive) |  | > 100 µM (inactive) | > 100 µM (inactive) | > 100 µM (inactive) |  | > 100 µM (inactive) |  | > 100 µM (inactive) | > 100 µM (inactive) | > 100 µM (inactive)
5 | NS(=O)(=O)c1ccc(NC(=O)C2C(=O)C(=O)N(c3ccc(S(N)(=O)=O)cc3)C2=O)cc1 (stereo not given) | > 100 µM (inactive) | > 100 µM (inactive) |  | > 100 µM (inactive) | > 100 µM (inactive) |  |  | > 100 µM (inactive) | > 100 µM (inactive) | > 100 µM (inactive) | > 100 µM (inactive) | > 100 µM (inactive) |  | > 100 µM (inactive) |  | > 100 µM (inactive) | > 100 µM (inactive) | > 100 µM (inactive) | > 100 µM (inactive) | > 100 µM (inactive)
6 | Cc1ccc(C)c(NC(=O)C(=O)CC(=O)C2CCOC2=O)c1 (stereo not given) | > 100 µM (inactive) | > 100 µM (inactive) |  | > 100 µM (inactive) | > 100 µM (inactive) |  |  | > 100 µM (inactive) | > 100 µM (inactive) | > 100 µM (inactive) |  | > 100 µM (inactive) |  | > 100 µM (inactive) |  | > 100 µM (inactive) | > 100 µM (inactive) | > 100 µM (inactive) | > 100 µM (inactive) | > 100 µM (inactive)
7 | CCOC(=O)/C(=C/c1ccco1)P(=O)(OCC)OCC | > 100 µM (inactive) | > 100 µM (inactive) |  | > 100 µM (inactive) |  |  |  | > 100 µM (inactive) | > 100 µM (inactive) | > 100 µM (inactive) | > 100 µM (inactive) | > 100 µM (inactive) |  | > 100 µM (inactive) |  | > 100 µM (inactive) | > 100 µM (inactive) | > 100 µM (inactive) | > 100 µM (inactive) | > 100 µM (inactive)
8 | CC(=O)c1ccc(NC(=O)/C(=N\NC(N)=O)C(C#N)CC(C)(C)C=O)cc1 (stereo not given) | > 100 µM (inactive) | > 100 µM (inactive) |  | > 100 µM (inactive) | > 100 µM (inactive) |  |  | > 100 µM (inactive) | > 100 µM (inactive) | > 100 µM (inactive) | > 100 µM (inactive) | > 100 µM (inactive) |  | > 100 µM (inactive) |  | > 100 µM (inactive) |  | > 100 µM (inactive) | > 100 µM (inactive) | > 100 µM (inactive)
9 | Cc1nc2c(n1-c1ccccc1)C(=O)c1ccccc1C2=O |  | 32.1 µM (inactive) |  | > 100 µM (inactive) | 75.2 µM (inactive) |  |  | 38.5 µM (inactive) | 17.9 µM (inactive) | 21.6 µM (inactive) | 37.1 µM (inactive) | 25.2 µM (inactive) |  | > 100 µM (inactive) |  |  | 76.7 µM (inactive) | 54.8 µM (inactive) | 38.4 µM (inactive) | 22.4 µM (inactive)
10 | COC(=O)C(C/C=C(\C)c1ccccc1)C(C)=O (stereo not given) | > 100 µM (inactive) | 40.9 µM (inactive) |  | > 100 µM (inactive) | > 100 µM (inactive) |  |  | 53.1 µM (inactive) | 59.8 µM (inactive) | 34.9 µM (inactive) |  | 76.7 µM (inactive) | 54.6 µM (inactive) | 52.7 µM (inactive) |  | 17.1 µM (inactive) |  | 97.3 µM (inactive) | 18.4 µM (inactive) | > 48.3 µM (inactive)
11 | CCCCCCCCOCC(O)COC(=O)CCCCCCC (stereo not given) | > 100 µM (inactive) | 12.1 µM (inactive) |  | > 100 µM (inactive) |  |  |  | > 100 µM (inactive) | 70.8 µM (inactive) | > 100 µM (inactive) | 17.4 µM (inactive) |  |  |  |  | 25.2 µM (inactive) | > 100 µM (inactive) | 95.5 µM (inactive) | > 100 µM (inactive) | 51.3 µM (inactive)
12 | O=C1Sc2ccccc2C(=O)N2CCSC12 (stereo not given) | > 10 µM (inactive) | > 100 µM (inactive) |  | 31 µM (inactive) | > 100 µM (inactive) |  |  |  | > 100 µM (inactive) | > 100 µM (inactive) | > 100 µM (inactive) |  |  | > 100 µM (inactive) |  | > 100 µM (inactive) |  |  | > 100 µM (inactive) | > 100 µM (inactive)
13 | CC1=C(C(=O)NCc2ccccc2)C(c2ccc(N(C)C)cc2)C(C(=O)NCc2ccccc2)=C(C)N1 | > 100 µM (inactive) | > 100 µM (inactive) |  | > 100 µM (inactive) | 11.7 µM (inactive) |  |  | > 100 µM (inactive) | > 100 µM (inactive) | > 100 µM (inactive) |  | 77.8 µM (inactive) |  | > 100 µM (inactive) |  | > 100 µM (inactive) | > 100 µM (inactive) |  | > 100 µM (inactive) | > 100 µM (inactive)
14 | O=C(c1ccccc1O)c1cc(-c2ncc3c(=O)c4ccccc4oc3n2)c(-c2ccccc2O)[nH]c1=O | 26.9 µM (inactive) | 26 µM (inactive) |  | 21.3 µM (inactive) | 23.4 µM (inactive) |  |  | 25.5 µM (inactive) | 25.5 µM (inactive) | 28.8 µM (inactive) |  | 25.2 µM (inactive) | 31.7 µM (inactive) | 22.1 µM (inactive) |  | 23.4 µM (inactive) |  | 22.5 µM (inactive) | 11.4 µM (inactive) | 18.9 µM (inactive)
15 | O=C(c1ccco1)c1ccccc1C(=O)c1ccco1 | > 100 µM (inactive) | > 100 µM (inactive) |  | > 100 µM (inactive) | > 100 µM (inactive) |  |  | > 100 µM (inactive) | > 100 µM (inactive) | > 100 µM (inactive) | > 100 µM (inactive) |  |  | > 100 µM (inactive) |  | > 100 µM (inactive) | > 100 µM (inactive) | > 100 µM (inactive) | > 100 µM (inactive) | > 100 µM (inactive)
16 | COC(=O)[C@]1(c2ccc(N(C)C)cc2OC)C[C@@H]2CCCN(CCc3c1[nH]c1ccccc31)C2 | 20.2 µM (inactive) | 25 µM (inactive) |  | 19 µM (inactive) | 19.8 µM (inactive) |  |  | 34.4 µM (inactive) | 16.4 µM (inactive) | 16.6 µM (inactive) |  | 17.4 µM (inactive) | 18.8 µM (inactive) | 20.3 µM (inactive) |  | 10.7 µM (inactive) |  | 21.1 µM (inactive) | > 43.7 µM (inactive) | 21 µM (inactive)
17 | Cc1nc(O)nc2c1C(NCCCN(C)C)c1cc(Cl)ccc1N2 (stereo not given) | 16.2 µM (inactive) | 15.1 µM (inactive) |  |  | 13.6 µM (inactive) |  |  | 13.9 µM (inactive) | 3.91 µM (inactive) | 14.7 µM (inactive) | 4.81 µM (inactive) | 15.2 µM (inactive) |  | 17.4 µM (inactive) |  | 10.9 µM (inactive) | 14.6 µM (inactive) | 16.2 µM (inactive) | 16.6 µM (inactive) | 13.2 µM (inactive)
18 | COc1cccc(-c2nc3c(C(=O)NCCN(C)C)cccc3[nH]2)c1 | 21.4 µM (inactive) | 8.05 µM (inactive) |  | 16.3 µM (inactive) | 20.7 µM (inactive) |  |  | 18.5 µM (inactive) | 16.3 µM (inactive) | 15.3 µM (inactive) |  | 15.2 µM (inactive) | 18 µM (inactive) | 18.8 µM (inactive) |  | 18.5 µM (inactive) |  | 13.2 µM (inactive) | 16.2 µM (inactive) | 16.1 µM (inactive)
19 | O=C1c2ccccc2C2(O)NC(=S)N(c3ccccc3)C12O (stereo not given) | > 100 µM (inactive) | > 100 µM (inactive) |  |  |  |  |  | > 100 µM (inactive) | > 100 µM (inactive) | > 100 µM (inactive) | > 100 µM (inactive) | > 100 µM (inactive) |  | > 100 µM (inactive) |  | > 100 µM (inactive) | > 100 µM (inactive) | > 100 µM (inactive) | > 100 µM (inactive) | > 100 µM (inactive)
